# “Also recorded” adds a separate entry of the source.
# Key:
# [1] = tested on: central DA-receptor (pre- and/or postsynaptic); assay: Rat-brain in-vivo tyrosine hydroxylation: Dopa accumulation after NSD 1015 in reserpine-pretreated rats; details: for Dopa-accumulation; ED50, Limbic: limbic forebrain; for Dopa-accumulation; ED50, Limbic / Dopa-accumulation; ED50, Striatum: reserpine-pretreated rats, half-maximal decrease in Dopa level, s.c.
# Method: The compounds under evaluation were tested biochemically for central DA-receptor (pre- and/or postsynaptic) stimulating activity. The concept of this biochemical screening method is that a DA-receptor agonist will stimulate the receptor and through regulatory feedback systems effect a decline in tyrosine hydroxylase activity and thus a subsequent reduction in the synthesis rate for DA in the presynaptic neuron. Dopa formation, as determined after in-vivo inhibition of the aromatic L-amino acid decarboxylase with NSD 1015 (3-hydroxybenzyl-hydrazine hydrochloride), is taken as an indirect measure of DA synthesis rate.
# Rats (150-300 g) pretreated with reserpine were given the compounds under evaluation. Gross behavioural observations (changes in motility, stereotypies etc.) were made in order to evaluate possible postsynaptic dopamine receptor activity. subsequent administration of NSD 1015, decapitation, brain dissection [corpora striata, limbic fore-brain and rest of the hemispheral parts (cortex)]homogenization, centrifugation, ion-exchange chromatography and spectro-fluorimetric measurements (all as described in detail by Wikstrom et al., in J. Med. Chem. 21, 864-867, 1978 and references cited therein), gave the actual Dopa levels.
# Several doses (n=4-6) were tested in order to obtain dose-response curves for each compound and brain area. The dose of a compound producing a half-maximal decrease in the Dopa level in the rat brain part was then estimated. These values (ED50) are presented in Table I. (Simultaneous determination of the 5-HTP levels was also performed utilizing the same paradigm.)
# ^b Rats pretreated with reserpine (10 mg/kg i.p.; 18 h) were given th
# compounds under evaluation. Fortyfive minutes later they were injected
# with NSD 1015 (100 mg/kg i.p.) and after a further 30 min they were
# decapitated, the brains rapidly dissected and taken for determination of
# the Dopa and 5HTP levels in different areas of the brain. The dose of a
# compound producing a halfmaximal decrease (ED50) in the Dopa level i
# the rat brain part was then estimated from doseresponse curves comprising
# 4-6 dose levels. (For further details see the text and references).
# DA autoreceptors = assay: Spontaneous locomotor activity in non-pretreated rats; type: in vivo, rat
# Method: Untreated animals exposed to a new environment display an initial high motor activity which then gradually declines over a period of time. Administration of DA-receptor agonists (e.g. apomorphine) in doses where preferential autoreceptor stimulation is likely to occur, causes a depression of the spontaneous motility mentioned above, considered to be due to the DA autoreceptor-medicated attenuation of central DA transmission.
# Rats (150-300 g) were injected subcutaneously with compound 2,5-OH-DPAT or apomorphine and after 5 minutes they were individually placed in motility boxes ("M/P 40 Fc Electronic Motility Meter". Motron Products, Stockholm) and the motor activity (0-30 min) was quantified. […] These findings are in congruence with the results obtained with the selective DA-autoreceptor agonist 3-PPP [S. Hjorth t al., Life Sciences, 28, 1225 (1981)] but in sharp contrast to the results obtained with 5-OH-DPAT and apomorphine (Table III).
# Non-pretreated rats were given compound -2 (0.0625-16.0 mg/kg),
# 5OH--2-(di-n-propylamino) tetralin (5OH--DPAT; 0.0125-0.05 mg/kg,
# apomorphine (0.1-1.0 mg/kg) or saline subcutaneously. Five minutes later
# they were placed individually into motility meters and the locomotor
# brain DA synthesis rate = assay: Formation of Dopa in rat brain regions (non-pretreated rats, NSD 1015); type: in vivo; set-up: formation of Dopa, Limbic forebrain / formation of Dopa, Striatum / formation of Dopa, Diencephalon / formation of Dopa, Brain-stem: unit not given here; details: for formation of Dopa, Brain-stem / formation of Dopa, Diencephalon / formation of Dopa, Hemispheral (cortical) parts / formation of Dopa, Limbic forebrain / formation of Dopa, Striatum: mean ± sem
# Method: (§1) Immediately thereafter the animals were removed from the boxes. Part of
# (§2) the animals were injected with NSD 1015 (100 mg/kg i.p.) and after a
# (§3) further 30 min they were killed, the brains rapidly dissected and taken
# (§4) for determination of the Dopa and 5HTP levels in different areas of the […]
# [2] = tested on: brain 5-HT synthesis rate; assay: Formation of 5-hydroxytryptophan in rat brain regions (non-pretreated rats, NSD 1015); type: in vivo; set-up: formation of 5-hydroxytryptophan, Limbic forebrain / formation of 5-hydroxytryptophan, Striatum / formation of 5-hydroxytryptophan, Diencephalon / formation of 5-hydroxytryptophan, Brain-stem: unit not given here; details: for formation of 5-hydroxytryptophan, Brain-stem / formation of 5-hydroxytryptophan, Diencephalon / formation of 5-hydroxytryptophan, Hemispheral (cortical) parts / formation of 5-hydroxytryptophan, Limbic forebrain / formation of 5-hydroxytryptophan, Striatum: mean ± sem
# Method: as §1, §2, §3, §4
# [3] = tested on: postsynaptic DA receptors; assay: Antagonism of the reserpine plus α-methyl-para-tyrosine-induced immobility (neuroleptic syndrome) in rats; motor activity; details: for Motor activity: 10 mg/kg s.c., reserpine 10 mg/kg + α-methyl-para-tyrosine 250 mg/kg i.p., means ± s.e.m.; for motor response / postsynaptic DA-receptor stimulatory effects: comparative study, Table II, s.c.; for antagonism of the reserpine-induced syndrome / behaviour elicited / postsynaptic DA-receptor stimulation: reserpine and α-methyl-para-tyrosine pretreated rats
structure (smiles),measurement,setting,value
"Br.CCCN(CCC)[C@H]1CCc2c(O)cccc2[C@H]1C (relative stereo) [Compound 2, cis-5-Hydroxy-1-methyl-2-(di-n-propylamino) tetralin hydrobromid]","Dopa-accumulation; ED50, Limbic",[1],0.67 μmol/kg s.c.
same,"Dopa-accumulation; ED50, Striatum",[1],0.80 μmol/kg s.c.
same,potency relative to 3-PPP (times more potent),"[1]; versus 3-PPP, Dopa accumulation",approximately 5 times
same,"comparative potency, in words","[1]; versus trans-1-CH3-5-OH-DPAT, 5-OH-DPAT, apomorphine, Dopa accumulation",equipotent to trans-1-CH3 -5-OH-DPAT; also recorded: less potent than 5-OH-DPAT; also recorded: of the same order of potency as apomorphine
same,Locomotor activity,"DA autoreceptors; 0.0625 mg/kg s.c., non-pretreated rats",146 ± 4 counts 0.30 min
same,Locomotor activity,"DA autoreceptors; 0.25 mg/kg s.c., non-pretreated rats",117 ± 11 counts 0.30 min
same,Locomotor activity,"DA autoreceptors; 1.0 mg/kg s.c., non-pretreated rats",82 ± 8 counts 0.30 min
same,Locomotor activity,"DA autoreceptors; 4.0 mg/kg s.c., non-pretreated rats",62 ± 5 counts 0.30 min
same,Locomotor activity,"DA autoreceptors; 16.0 mg/kg s.c., non-pretreated rats",63 ± 9 counts 0.30 min
same,maximal decrease of the initial high motor activity from control values,"DA autoreceptors; at about 4 mg/kg s.c., 0-30 min",70%
same,"effect on locomotor activity, in words","DA autoreceptors; non-pretreated rats, s.c.",clear and significant dose-dependent decrease of the initial high motor activity; also recorded: No locomotor stimulation is ever seen
same,dose at which the maximal effect on motor activity is attained,"DA autoreceptors; s.c., 0-30 min",about 4 mg/kg
same,"formation of Dopa, Brain-stem",brain DA synthesis rate; 0.0625 mg/kg s.c.,177 ± 10
same,"formation of Dopa, Diencephalon",brain DA synthesis rate; 0.0625 mg/kg s.c.,148 ± 5
same,"formation of Dopa, Hemispheral (cortical) parts",brain DA synthesis rate; 0.0625 mg/kg s.c.,66 ± 2
same,"formation of Dopa, Limbic forebrain",brain DA synthesis rate; 0.0625 mg/kg s.c.,114 ± 6
same,"formation of Dopa, Striatum",brain DA synthesis rate; 0.0625 mg/kg s.c.,65 ± 4
same,"formation of Dopa, Brain-stem",brain DA synthesis rate; 0.25 mg/kg s.c.,170 ± 6
same,"formation of Dopa, Diencephalon",brain DA synthesis rate; 0.25 mg/kg s.c.,144 ± 2
same,"formation of Dopa, Hemispheral (cortical) parts",brain DA synthesis rate; 0.25 mg/kg s.c.,63 ± 2
same,"formation of Dopa, Limbic forebrain",brain DA synthesis rate; 0.25 mg/kg s.c.,116 ± 3
same,"formation of Dopa, Striatum",brain DA synthesis rate; 0.25 mg/kg s.c.,71 ± 5
same,"formation of Dopa, Brain-stem",brain DA synthesis rate; 1.0 mg/kg s.c.,167 ± 8
same,"formation of Dopa, Diencephalon",brain DA synthesis rate; 1.0 mg/kg s.c.,134 ± 7
same,"formation of Dopa, Hemispheral (cortical) parts",brain DA synthesis rate; 1.0 mg/kg s.c.,60 ± 1
same,"formation of Dopa, Limbic forebrain",brain DA synthesis rate; 1.0 mg/kg s.c.,107 ± 5
same,"formation of Dopa, Striatum",brain DA synthesis rate; 1.0 mg/kg s.c.,75 ± 6
same,"formation of Dopa, Brain-stem",brain DA synthesis rate; 4.0 mg/kg s.c.,170 ± 5
same,"formation of Dopa, Diencephalon",brain DA synthesis rate; 4.0 mg/kg s.c.,137 ± 3
same,"formation of Dopa, Hemispheral (cortical) parts",brain DA synthesis rate; 4.0 mg/kg s.c.,59 ± 2
same,"formation of Dopa, Limbic forebrain",brain DA synthesis rate; 4.0 mg/kg s.c.,113 ± 3
same,"formation of Dopa, Striatum",brain DA synthesis rate; 4.0 mg/kg s.c.,72 ± 4
same,"formation of Dopa, Brain-stem",brain DA synthesis rate; 16.0 mg/kg s.c.,170 ± 8
same,"formation of Dopa, Diencephalon",brain DA synthesis rate; 16.0 mg/kg s.c.,137 ± 5
same,"formation of Dopa, Hemispheral (cortical) parts",brain DA synthesis rate; 16.0 mg/kg s.c.,59 ± 2
same,"formation of Dopa, Limbic forebrain",brain DA synthesis rate; 16.0 mg/kg s.c.,108 ± 5
same,"formation of Dopa, Striatum",brain DA synthesis rate; 16.0 mg/kg s.c.,73 ± 4
same,"effect on brain DA synthesis rate, in words","brain DA synthesis rate; non-pretreated rats, s.c.",significant decrease in rate brain DA synthesis rate; also recorded: marked difference in response between the limbic forebrain and the striatal structures
same,"formation of 5-hydroxytryptophan, Brain-stem",[2]; 0.0625 mg/kg s.c.,98 ± 4
same,"formation of 5-hydroxytryptophan, Diencephalon",[2]; 0.0625 mg/kg s.c.,196 ± 8
same,"formation of 5-hydroxytryptophan, Hemispheral (cortical) parts",[2]; 0.0625 mg/kg s.c.,40 ± 3
same,"formation of 5-hydroxytryptophan, Limbic forebrain",[2]; 0.0625 mg/kg s.c.,314 ± 15
same,"formation of 5-hydroxytryptophan, Striatum",[2]; 0.0625 mg/kg s.c.,458 ± 17
same,"formation of 5-hydroxytryptophan, Brain-stem",[2]; 0.25 mg/kg s.c.,96 ± 11
same,"formation of 5-hydroxytryptophan, Diencephalon",[2]; 0.25 mg/kg s.c.,170 ± 9
same,"formation of 5-hydroxytryptophan, Hemispheral (cortical) parts",[2]; 0.25 mg/kg s.c.,46 ± 2
same,"formation of 5-hydroxytryptophan, Limbic forebrain",[2]; 0.25 mg/kg s.c.,305 ± 14
same,"formation of 5-hydroxytryptophan, Striatum",[2]; 0.25 mg/kg s.c.,448 ± 26
same,"formation of 5-hydroxytryptophan, Brain-stem",[2]; 1.0 mg/kg s.c.,96 ± 7
same,"formation of 5-hydroxytryptophan, Diencephalon",[2]; 1.0 mg/kg s.c.,170 ± 11
same,"formation of 5-hydroxytryptophan, Hemispheral (cortical) parts",[2]; 1.0 mg/kg s.c.,43 ± 3
same,"formation of 5-hydroxytryptophan, Limbic forebrain",[2]; 1.0 mg/kg s.c.,291 ± 9
same,"formation of 5-hydroxytryptophan, Striatum",[2]; 1.0 mg/kg s.c.,420 ± 30
same,"formation of 5-hydroxytryptophan, Brain-stem",[2]; 4.0 mg/kg s.c.,111 ± 8
same,"formation of 5-hydroxytryptophan, Diencephalon",[2]; 4.0 mg/kg s.c.,176 ± 10
same,"formation of 5-hydroxytryptophan, Hemispheral (cortical) parts",[2]; 4.0 mg/kg s.c.,47 ± 2
same,"formation of 5-hydroxytryptophan, Limbic forebrain",[2]; 4.0 mg/kg s.c.,267 ± 6
same,"formation of 5-hydroxytryptophan, Striatum",[2]; 4.0 mg/kg s.c.,479 ± 9
same,"formation of 5-hydroxytryptophan, Brain-stem",[2]; 16.0 mg/kg s.c.,118 ± 4
same,"formation of 5-hydroxytryptophan, Diencephalon",[2]; 16.0 mg/kg s.c.,214 ± 13
same,"formation of 5-hydroxytryptophan, Hemispheral (cortical) parts",[2]; 16.0 mg/kg s.c.,48 ± 3
same,"formation of 5-hydroxytryptophan, Limbic forebrain",[2]; 16.0 mg/kg s.c.,272 ± 20
same,"formation of 5-hydroxytryptophan, Striatum",[2]; 16.0 mg/kg s.c.,478 ± 10
same,"effect on brain 5-HT synthesis rate, in words","[2]; non-pretreated rats, s.c.",without any concomitant change in brain 5-HT synthesis rate
same,Motor activity,[3],52 ± 5 counts 0-60 min
same,motor response / postsynaptic DA-receptor stimulatory effects,[3],failed to elicit a motor response that differed more than slightly from control values
same,antagonism of the reserpine-induced syndrome / behaviour elicited,[3],inability of compound 2 to antagonize the reserpine-induced syndrome
same,postsynaptic DA-receptor stimulation,[3],compound 2 is not
"CCCN(CCC)[C@@H]1CCc2c(O)cccc2[C@H]1C (relative stereo) [trans-1-CH35-OHDPAT, trans-1-methyl-5-hydroxy-2-(di-n-propylamino)tetralin]","Dopa-accumulation; ED50, Limbic",[1],0.66 μmol/kg s.c.
same,"Dopa-accumulation; ED50, Striatum",[1],0.73 μmol/kg s.c.
same,Motor activity,[3],406 ± 47 counts 0-60 min
same,motor response / postsynaptic DA-receptor stimulatory effects,[3],strong central postsynaptic DA-receptor stimulatory effects
same,antagonism of the reserpine-induced syndrome / behaviour elicited,[3],pronounced stereotyped and hyperactive behaviour
same,postsynaptic DA-receptor stimulation,[3],efficient postsynaptic DA-receptor stimulants
